Structures can show the parent of a compound that is named as a salt.

The target in assay [1] is T1, untagged HECT of NEDD4L (E3 ligase) (Homo sapiens, UniProt Q96PU5).
T1 construct: using untagged HECT of NEDD4L (E3 ligase) instead of untagged HECT of NEDD4 wild-type (WT) (E3 ligase); made in house; host or cells: bacteria (printed for the NEDD4L HECT of the western-blot assay; not repeated here)
T1 sequence (Q96PU5 594-975 limits assumed): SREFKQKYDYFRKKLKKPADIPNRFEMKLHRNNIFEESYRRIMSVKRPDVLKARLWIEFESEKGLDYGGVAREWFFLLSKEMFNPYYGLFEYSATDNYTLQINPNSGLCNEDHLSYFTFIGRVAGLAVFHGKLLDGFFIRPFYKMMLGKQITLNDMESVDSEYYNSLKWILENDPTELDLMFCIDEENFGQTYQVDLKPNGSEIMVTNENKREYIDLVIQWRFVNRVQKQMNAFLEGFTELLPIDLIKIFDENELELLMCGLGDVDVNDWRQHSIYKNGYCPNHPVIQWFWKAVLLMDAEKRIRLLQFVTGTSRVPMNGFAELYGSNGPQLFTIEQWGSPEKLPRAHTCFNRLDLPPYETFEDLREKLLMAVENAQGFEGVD
Description: In vitro ubiquitination assay TR-FRET based, NEDD4L. The assay is classed as biochemical. To be noted: read-out: percentage of inhibition (NEDD4L). How it is done: (§1) To determine the selectivity of identified NEDD4 inhibitors, it was quantitatively measured the self-ubiquitination process of the E3 HECT ligase belonging to NEDD4 family such as NEDD4L, HECW2 and ITCH in presence or not of some compounds such as 5, 9, 12, 29, 42, 45, 56, 58, 61, 77, 78, 85 and 94 employing TR-FRET based assays.
The assay was performed as described above in the paragraph titled “In vitro ubiquitination assay TR-FRET based” under the heading “2.1. NEDD4 UBIQUITINATION ASSAYS” using untagged HECT of NEDD4L (E3 ligase) instead of untagged HECT of NEDD4 wild-type (WT) (E3 ligase). In this case, final E1, E2 and E3 concentrations in the assay buffer (Tris-HCl pH 7.6 25 mM, NaCl 100 mM, MgCl2 5 mM and Tween 0.01%) were 30, 350 and 31.3 nanomolars, respectively. Untagged HECT NEDD4L (E3 ligase) enzyme was produced and purified as reported in E. Maspero et al. Methods Mol Biol. 1449:153-60 (2016) and in E. Maspero et al. EMBO Reports 12:342-349(2011).
On the technique in general: TR-FRET usually uses a lanthanide donor and a delayed reading to cut background.

The subject of another assay is DU145 cells. The assay can be described thus: CellTiter-Glo Luminescent Cell Viability Assay, DU145. The assay is classed as cell-based. The following applies: Homo sapiens, DU-145; 48 hours incubation; mean of at least two determinations; read-out: DU145 IC50 μM (antiproliferative activity). The text has this:
(§2) CellTiter-Glo® Luminescent Cell Viability Assay (Promega, Catalog number: G7571) is a homogeneous method of determining the number of viable cells in culture based on quantitation of the present ATP, which indicates the presence of metabolically active cells. The homogeneous assay procedure involves addition of a single reagent (CellTiter-Glo® Reagent) directly to the cells, which leads to cell lysis and generation of a luminescent signal proportional to the amount of the ATP and the number of cells present in culture. The assay relies on the properties of a proprietary thermostable luciferase (Ultra-Glo® recombinant luciferase), which generates a luminescent signal.
(§3) DU145 cells (obtained from CLS Cell Lines Service GmbH item 300168) were grown in DMEM (Sigma Aldrich catalog number D6171-500 ml) supplemented with 10% Fetal Bovine Serum (Euroclone, catalog number. ECS0180L), 2 mM L-Glutamine (Euroclone catalog number LOBE17605F) and 100 U/ml penicillin-[…] streptomycin (EuroClone, ECB3001L). LNCaP cells (obtained from CLS Cell Lines Service GmbH item 300265) were grown in RPMI1640 (Lonza catalog number BE12-167F) supplemented with 10% Fetal Bovine Serum (Euroclone, catalog number. ECS0180L), 2 mM L-Glutamine (Euroclone catalog number LOBE17605F) and 100 U/ml penicillin-[…] streptomycin (EuroClone, ECB3001 L).
(§4) To determine the antiproliferative activity of the compounds, 3000 DU145 cells and 5000 LNCap cells were seeded in 96 multiwell plate (Sigma catalog number CLS9102) per well. 24 hours after seeding, the cells were incubated for 48 hours with different concentrations of the inhibitors (from 50 to 0 μM with a 3-fold dilution) dissolved in DMSO. After 48 hours, a volume of CellTiter-Glo® Reagent equal to the volume of cell culture medium was added. The content was mixed for 2 min to induce cell lysis. The luminescence was measured and recorded with Tecan Infinite 200 multimode plate reader after further 10 min at room temperature in order to obtain a stable luminescent signal.
(§5) The IC50 was calculated using GraphPad Software from the recorded luminescent signal.

The next assay has as its system LNCaP cells. Description: CellTiter-Glo Luminescent Cell Viability Assay, LNCaP. Format: cell-based. The following applies: Homo sapiens, 48 hours incubation, mean of at least two determinations, read-out: LNCaP IC50 μM (antiproliferative activity).
Text: as §2, §3, §4, §5
(In general: Cellular ATP, detected with luciferase, serves as a proxy for viable cell number.)

Assay [2] addresses T2, His-MPB tagged HECT of HECW2 (E3 ligase) (Homo sapiens, UniProt Q9P2P5).
T2 construct: using His-MPB tagged HECT of HECW2 (E3 ligase) instead of untagged HECT of NEDD4 wild-type (WT) (E3 ligase); made in house
The assay can be described thus: In vitro ubiquitination assay TR-FRET based, HECW2. Format: biochemical. The following applies: read-out: percentage of inhibition (HECW2). How it is done:
as §1
The assay was performed as described above in the paragraph titled “In vitro ubiquitination assay TR-FRET based” under the heading “2.1. NEDD4 UBIQUITINATION ASSAYS” using His-MPB tagged HECT of HECW2 (E3 ligase) instead of untagged HECT of NEDD4 wild-type (WT) (E3 ligase). In this case, final E1, E2 and E3 concentrations in the assay buffer (Tris-HCl pH 7.6 25 mM, NaCl 100 mM, MgCl2 5 mM and Tween 0.01%) were 30, 350 and 62.5 nanomolars, respectively. His-MPB tagged HECT of HECW2 (E3 ligase) enzyme was produced and purified as reported in E. Maspero et al. Methods Mol Biol. 1449:153-60 (2016) and in E. Maspero et al. EMBO Reports 12:342-349(2011).

T2 sequence (Q9P2P5 1237-1572 limits assumed): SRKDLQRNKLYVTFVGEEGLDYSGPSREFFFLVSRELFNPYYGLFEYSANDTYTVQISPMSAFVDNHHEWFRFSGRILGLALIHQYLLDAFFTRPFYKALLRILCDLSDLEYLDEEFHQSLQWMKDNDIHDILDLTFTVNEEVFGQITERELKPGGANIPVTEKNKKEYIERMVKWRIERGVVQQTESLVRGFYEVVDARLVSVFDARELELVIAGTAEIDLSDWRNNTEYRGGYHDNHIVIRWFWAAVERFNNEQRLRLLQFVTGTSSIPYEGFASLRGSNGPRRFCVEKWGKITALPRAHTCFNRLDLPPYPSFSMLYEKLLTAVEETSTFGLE

The term inhibition denotes the change of the read-out against control, counted positive when it falls. As usually defined, the IC50 is the concentration at which inhibition is half-maximal. Regarding `CCOC(=O)/C=C/CCNCCCN1c2ccccc2CCc2ccc(Cl)cc21` [Compound 5, Ethyl (E)-5-[3-(3-chloro-10,11-dihydro-5H-dibenzo[b,f]azepin-5-yl)propylamino]pent-2-enoate maleate], the inhibition at 11 µM in assay [1] and in assay [2] was less than 15% in each case. Further, the IC50 amounted to 7.68 µM in the assay with DU145 cells and 10.9 µM in the assay on LNCaP cells.

`CON(C)C(=O)/C=C/CN(C)CCCCN1c2ccccc2CCc2ccc(Cl)cc21` [Compound 9, (E)-4-[4-(3-Chloro-10,11-dihydro-5H-dibenzo[b,f]azepin-5-yl)butyl-methyl-amino]-N-methoxy-N-methyl-but-2-enamide]: the inhibition at 11 µM in assay [1] and in assay [2] was less than 5% in each case.

`CCOC(=O)/C=C/CNCCCCN1c2ccccc2CCc2ccc(Cl)cc21.O=C(O)/C=C\C(=O)O` [Compound 12, Ethyl (E)-4-[4-(3-chloro-10,11-dihydro-5H-dibenzo[b,f]azepin-5-yl)butylamino]but-2-enoate maleate]: the inhibition at 11 µM in assay [1] was less than 15%; in assay [2], less than 5%. In addition, the IC50 with DU145 cells was 6.81 µM; with LNCaP cells, 6.67 µM.

As for `CCOC(=O)/C=C/CNCCCCN1c2ccccc2C(=O)N(C)c2ccc(Cl)cc21` [Compound 29, Ethyl (E)-4-{[4-(7-chloro-10-methyl-11-oxo-10,11-dihydro-5H-dibenzo[b,e][1,4]diazepin-5-yl)butyl]amino}but-2-enoate maleate], the figures for the inhibition at 11 µM in assay [1] and in assay [2] were no more than 20% and less than 15%, respectively.

Turning to `CCOC(=O)/C=C/CNCCCCN1c2cc(Cl)ccc2C(=O)N(C)c2ccccc21` [Compound 42, Ethyl (E)-4-{[4-(3-chloro-10-methyl-11-oxo-10,11-dihydro-5H-dibenzo[b,e][1,4]diazepin-5-yl)butyl]amino}but-2-enoate maleate], the inhibition at 11 µM in assay [1] and in assay [2] was less than 15% throughout. The IC50 with DU145 cells came out at 9.18 µM; in the assay with LNCaP cells, 6.49 µM.

Turning to `CCOC(=O)/C=C/CNCCCCN1c2ccccc2C(=O)N(Cc2ccccc2)c2ccc(Cl)cc21` [Compound 45, Ethyl (E)-4-{[4-(10-benzyl-7-chloro-11-oxo-10,11-dihydro-5H-dibenzo[b,e][1,4]diazepin-5-yl)butyl]amino}but-2-enoate maleate], the inhibition at 11 µM in assay [1] is no more than 20%; in assay [2] it was less than 20%. Moreover, the IC50 in the assay on DU145 cells came out at 4.97 µM; in the assay with LNCaP cells, 5.69 µM.

Turning to `CCOC(=O)/C=C/CNCCCCN1c2cc(Cl)ccc2C(=O)N(Cc2ccccc2)c2ccccc21` [Compound 56, Ethyl (E)-4-((4-(10-benzyl-3-chloro-11-oxo-10,11-dihydro-5H-dibenzo[b,e][1,4]diazepin-5-yl)butyl)amino)but-2-enoate maleate], the inhibition at 11 µM in assay [1] was no more than 20%; in assay [2], less than 15%.

Regarding `COC(=O)/C=C/CN(C)CCCCN1c2cc(Cl)ccc2C(=O)N(Cc2ccccc2)c2ccccc21` [Compound 58, Methyl (E)-4-{[4-(10-benzyl-3-chloro-11-oxo-10,11-dihydro-5H-dibenzo[b,e][1,4]diazepin-5-yl)butyl](methyl)amino}but-2-enoate maleate], the inhibition at 11 µM in assay [1] and in assay [2] was less than 5% throughout.

Regarding `CN(C/C=C/C#N)CCCCN1c2cc(Cl)ccc2C(=O)N(Cc2ccccc2)c2ccccc21` [Compound 61, (E)-4-{[4-(10-benzyl-3-chloro-11-oxo-10,11-dihydro-5H-dibenzo[b,e][1,4]diazepin-5-yl)butyl](methyl)amino}but-2-enenitrile maleate], the inhibition at 11 µM in assay [1] and in assay [2] was less than 5% throughout.

`C#CCON(C)C(=O)/C=C/CN(C)CCCCN1c2ccccc2CCc2ccc(Cl)cc21` [Compound 77, (E)-4-[4-(3-Chloro-10,11-dihydro-5H-dibenzo[b,f]azepin-5-yl)butyl-methyl-amino]-N-methyl-N-prop-2-ynoxy-but-2-enamide maleate]: the inhibition at 11 µM in assay [1] and in assay [2] was less than 15% throughout.

As to `CONC(=O)/C=C/CNCCCCN1c2ccccc2CCc2ccc(Cl)cc21` [Compound 78, (E)-4-[4-(3-Chloro-10,11-dihydro-5H-dibenzo[b,f]azepin-5-yl)butylamino]-N-methoxy-but-2-enamide maleate], the inhibition at 11 µM in assay [1] and in assay [2] was less than 5% each time.

With `CONC(=O)/C=C/CN(C)CCCCN1c2ccccc2CCc2ccc(Cl)cc21` [Compound 85, (E)-4-[4-(3-Chloro-10,11-dihydro-5H-dibenzo[b,f]azepin-5-yl)butyl-methyl-amino]-N-methoxy-but-2-enamide maleate], the inhibition at 11 µM in assay [1] and in assay [2] was less than 5% in each case. The IC50 with DU145 cells was 11.3 µM; in the assay with LNCaP cells, 16.3 µM.

`CN(C/C=C/C(=O)OCCOCCOCCOCCNC(=O)CCCC[C@@H]1SC[C@@H]2NC(=O)N[C@@H]21)CCCCN1c2ccccc2CCc2ccc(Cl)cc21` [Compound 94, 2-[2-(2-{2-[5-((3aS,4S,6aR)-2-Oxo-hexahydro-thieno[3,4-d]imidazol-4-yl)-pentanoylamino]-ethoxy}-ethoxy)-ethoxy]-ethyl (E)-4-{[4-(3-chloro-10,11-dihydro-dibenzo[b,f]azepin-5-yl)-butyl]-methyl-amino}but-2-enoate]: the inhibition at 11 µM in assay [1] and in assay [2] was less than 15% each time.

Values taken from patent US12403144B2, “HECT E3 ligase inhibitors and uses thereof” (IFOM FONDAZIONE ISTITUTO FIRC DI ONCOLOGIA MOLECOLARE, priority 2019, dated 2025).
